# Assay results published in patent US8716478B2, “Boron-containing small molecules” (Anacor Pharmaceuticals, Inc., priority 2010, dated 2014).
# Where two headings read alike, the source gives them in different places.
# Assays:
# [1] = tested on: Schistosoma mansoni adult worms; test: Schistosoma mansoni adult worm phenotypic screen; details: for phenotypes caused by positive control compounds in adult worms: positive controls
# Source text: (§1) Puerto Rican isolates of S. mansoni using Biomphalaria glabrata snails and golden hamsters as intermediate and definitive hosts, respectively, were maintained and handled in the University of California-San Francisco Sandler Center for Tropical Medicine. Patent B. glabrata snails (6-8 weeks after exposure to 5-10 infectious miracidia) were induced to shed infective larvae (cercariae) under light stimulus into the surrounding water. Cercariae were washed in rounds of ice-cold water and concentrated through and over sieves of varying pore sizes. They were then mechanically sheared (separation of heads from tails) as described in Colley D G, et al. Exp Parasitol 1974, 35:44-51, in ice-cold Incomplete Medium 169 (as described in Basch P F. J Parasitol 1981, 67:179-185, minus FBS and antibiotics) by passing 15 times through a double headed 22-gauge syringe needle connected to two 10 mL syringes. The resulting cercarial heads (schistosomula) were separated from their tails by swirling in a petri dish. Concentrated schistosomula were added to a sterile 1.5 mL centrifuge tube and allowed to settle over ice. Schistosomula were transferred to a sterile environment and washed 4 times in Incomplete Medium 169 prior to plating.
# (§2) Two sets of screening were performed. In the first set, compounds were screened against schistosomula and observations were made at 24 hours, 2 days, 3 days, 4 days, and 6 days. In the second set, compounds were screened against schistosomula with observations at 24 hours, 2 days, 3 days, and 4 days and adult worms at 7 hours, 24 hours, 4 days, and 6 days.
# Given the delicacy and size (0.5-1.5 cm in length) of this stage all operations were performed manually by the Sandler Center. 24-well plates were set up with compound (final DMSO concentration=0.5%) containing approximately 5 pairs of worms (S. mansoni has separate sexes) in 2 mL complete Basch medium per well. Plates were maintained at 37° C. in a 5% CO2 atmosphere. All compounds were tested in duplicate with at least two experimental replicates.
# (§3) A semi-quantitative and controlled nomenclature for phenotypes that can arise as a result of compound insult to both schistosomula and adults was utilized (Abdulla M H, et al., PLoS Negl Trop Dis 2009, 3:e478). Phenotypes were recorded by visual inspection and on a flexible time basis but at least at 24 h and 4 day time-points in the case of large scale screening. […] To help eliminate bias, two screen analysts scored phenotypes ‘blind’ both to knowledge of the contents of each screening plate and the phenotypes scored by his/her colleague. Upon completing their individual assessments, each analyst's ‘hit sheet’ was then compared to derive a ‘consensus hit sheet’. Discrepancies in analysts' hit sheets were re-evaluated under the microscope to eventually make a consensus hit call.
# (§4) Hyper-coiled and coiled represent a verbal description of the visual phenotype as compared to the DMSO control. The + and ++ and +++ means more of the phenotype which preceded it. The − means less of the phenotype which preceded it. Results
# [2] = tested on: Schistosoma mansoni schistosomula; test: Schistosoma mansoni schistosomula phenotypic screen; details: for phenotypes caused by positive control compounds in schistosomula: positive controls; for Schistosomula (juvenile infective form) worm screen phenotype, 24 h: Second Set, 5 uM
# Source text: as §1, §2
# Plates contain 200 schistosomula/well in […] complete Basch medium and were maintained at 37° C. in a 5% CO2 atmosphere. All compounds were tested in duplicate with at least two experimental replicates. Compounds and control compounds were added to the plates using the Biomek FXp using 96-well disposable tips. Final concentration of DMSO in each well was 0.5%.
# as §3, §4
# [3] = Pharmacokinetics and oral bioavailability after IV and PO dosing; assay type: in vivo, female CD-1 mice; details: plasma; for bioavailability / AUC: female, CD-1, mouse; for bioavailability: po; for AUC: 10 mg/kg oral suspension dose; for clearance: mouse, 5 mg/kg, female CD-1 mice, intravenous
# Description: The objective of this study was to evaluate the pharmacokinetics and oral bioavailability of PDE4 inhibitors following intravenous (IV) administration and oral (PO) doses in female CD-1 mice.
# After dosing, blood samples were collected through 24 h, twice from each animal at specific times (3 mice/time point), into microcentrifuge tubes containing K2EDTA (anticoagulant), stored on wet ice and processed for plasma. The plasma samples were analyzed for concentrations of parent compound by LC/MS/MS using an internal standard/peak area method. Pharmacokinetic analysis of the mean plasma concentration-time profiles following IV and PO administration was performed.
# […] Dosing solutions for intravenous administration were prepared in 55% PEG300/25% PG/20% water. Oral dosing used a suspension prepared in 1% CMC in water with 0.1% Tween 80.
# After dosing, blood samples were collected through 24 h, twice from each animal via retro-orbital bleed (˜0.1 mL, 1st time point) or cardiac puncture (˜0.6 mL, 2nd time point) at specific times (3 mice/time point), into microcentrifuge tubes containing K2EDTA (anticoagulant) and stored on wet ice prior to processing.
# Plasma was prepared by centrifugation of blood samples for 6 min at approximately 2000×g or 6000 rpm at 4° C. All processed plasma samples (˜50 μL and 300 μL) were transferred to analysis tubes, placed on dry ice immediately and later stored at −80° C. until analysis for concentrations of experimental compound by LC/MS/MS.
# Mouse IV clearance, Mouse Oral AUC and Oral Bioavailability are provided below. 6-(1-Hydroxy-1,3-dihydrobenzo[c][1,2]oxaborol-5-yloxy)-2-(2-isopropoxyethoxy)nicotinonitrile (D140) and 6-(1-hydroxy-1,3-dihydrobenzo[c][1,2]oxaborol-5-yloxy)-2-(4-oxopentyloxy)nicotinonitrile (D141) are disclosed in U.S. patent application Ser. No. 12/399,015, filed Mar. 5, 2009.
# [4] = tested on: human PDE4 enzyme; test: Phosphodiesterase 4 (PDE4) inhibition, semi-purified enzyme from human U937 cells; assay type: biochemical
# [5] = tested on: TNF-α; test: In vivo TNF-α release in LPS treated mice; set-up: species or system Swiss Webster mice
# Description: In vivo TNF-α release was measured in Swiss Webster mice, 10/group. Animals were dosed via oral gavage with drug 1% CMC suspension. Thirty minutes later LPS, 1.5 mg/kg was administered by intraperitoneal injection. Ninety minutes later animals were sacrificed, blood was collected by exsangination and serum prepared for analysis. TNF-α concentration was assessed by ELISA, non-drug treated animals had TNF-α levels 1000-3000 pg/mL. 6-(1-Hydroxy-1,3-dihydrobenzo[c][1,2]oxaborol-5-yloxy)-2-(2-isopropoxyethoxy)nicotinonitrile (D140) and 6-(1-hydroxy-1,3-dihydrobenzo[c][1,2]oxaborol-5-yloxy)-2-(4-oxopentyloxy)nicotinonitrile (D141) are disclosed in U.S. patent application Ser. No. 12/399,015, filed Mar. 5, 2009.
# [6] = tested on: TNF-α in peripheral blood mononuclear cells (PBMCs); test: TNF-α inhibition in LPS-stimulated peripheral blood mononuclear cells; assay type: cell-based; details: PBMC
# Description: Peripheral blood mononuclear cells (PBMCs) pooled from 10-20 donors were obtained from a local blood bank, ficoll gradient purified, and stored frozen in liquid nitrogen. Cells were thawed and seeded into 96-well plates at 5×10^5 cells/well in RPMI 1640 with 10% heat-inactivated fetal calf serum (MediaTech, Inc, Hearndon, Va., USA), Test articles were evaluated at the indicated concentrations in 150 μL media containing <2% DMSO, final, with stimulant and PBMCs. Cells were stimulated with lipopolysaccharide (LPS, phenol-extract from E. coli, Sigma-Aldrich, St. Louis, Mo.) at 1 μg/mL. Stimulation was with LPS for 24 h to measure TNF-α. Cytokines in supernatants were analyzed with a FACSArray flow cytometer (BD Biosciences, San Jose, Calif., USA) using the BD Cytometric Bead Array (CBA) Flex Set (BD Biosciences). IC50 values were calculated using the four parameter logistic equation.
# [7] = tested on: Brugia malayi; test: Brugia malayi in vitro assay, adult female worms; details: 50 uM
# Description: Adult female worms are shipped from TRS Labs Inc. (Nonglak Supakorndej, Lab Director, 295 Research Dr., Athens, Ga. 30605; 706-549-0764) via Fed Ex. Individual worms are shipped in 2 mls vials with RPMI on Mondays and arrive at the […] Center lab on Tuesday mornings. Individual worms are poured into each well (24-well tissue culture plates) to avoid handling worms since they are very delicate and easily broken. Transport media is removed and replaced with 0.5 mls of RPMI-1640 (25 mM HEPES, 2 g/L NaHCO3, Antibiotic/Antimycotic, 5% HI FBS). Worms are maintained in a 37° C. 5% CO2 incubator. Compounds are added directly to each duplicate well (5 ul of 5 mM for a final concentration of 50 uM). DMSO (5 ul) is used as a negative control and Ivermectin (Sigma) is used as a positive control at 100 uM/well and 20 uM/well. Adult filarial nematodes can shed/give birth to microfilarial worms (mf) during the course of the assay. Wells were reviewed for the presence of mf, and the viability of mf, by visual observation of the well on the last day of observation (Day 7). Plates are examined once a day for 4-7 days. […] If changes are observed, worms are more closely examined under a dissecting microscope.
# [8] = under similar conditions, read-out: PDE4 IC50 value
# [9] = under similar conditions, read-out: TNF-α IC50 value
smiles,measurement,setting,value
"O=C(Nc1ccc(Oc2ccc(Cl)cc2)c(Cl)c1)c1cc(I)cc(I)c1O [rafoxanide, reference compound]",phenotypes caused by positive control compounds in adult worms,[1],"dose-dependent, rapid and severe phenotypes"
same,phenotypes caused by positive control compounds in schistosomula,[2],"dose-dependent, rapid and severe phenotypes"
"CC(=O)CCCOc1nc(Oc2ccc3c(c2)COB3O)ccc1C#N [Compound D141, 6-(1-hydroxy-1,3-dihydrobenzo[c][1,2]oxaborol-5-yloxy)-2-(4-oxopentyloxy)nicotinonitrile, reference compound]",bioavailability,[3],32%
same,AUC,[3],1300 ng·h/mL
same,clearance,[3],43.3 mL/min/kg
same,IC50,[4]; [8],3.1 nM
same,% Inhibition of TNFa Blood Levels in LPS Treated Mice,[5]; Oral Dose 3 mg/kg,36.1%
same,% Inhibition of TNFa Blood Levels in LPS Treated Mice,[5]; Oral Dose 10 mg/kg,52.4%
same,% Inhibition of TNFa Blood Levels in LPS Treated Mice,[5]; Oral Dose 30 mg/kg,67.1%
same,IC50,[6]; [9],1.2 nM
"CC(=O)CCCOc1nc(Oc2ccc3c(c2)COB3O)c(Cl)cc1C#N [Compound D231, 5-Chloro-6-(1-hydroxy-1,3-dihydrobenzo[c][1,2]oxaborol-5-yloxy)-2-(4-oxopentyloxy)nicotinonitrile]",bioavailability,[3],96%
same,AUC,[3],8500 ng·h/mL
same,clearance,[3],25 mL/min/kg
same,IC50,"[4]; 1 μM cAMP, 20 minutes at 25° C., read-out: PDE4 IC50",0.8 nM
same,% Inhibition of TNFa Blood Levels in LPS Treated Mice,[5]; Oral Dose 0.03 mg/kg,0%
same,% Inhibition of TNFa Blood Levels in LPS Treated Mice,[5]; Oral Dose 0.1 mg/kg,22%
same,% Inhibition of TNFa Blood Levels in LPS Treated Mice,[5]; Oral Dose 0.3 mg/kg,33.6%
same,% Inhibition of TNFa Blood Levels in LPS Treated Mice,[5]; Oral Dose 1 mg/kg,69.5%
same,% Inhibition of TNFa Blood Levels in LPS Treated Mice,[5]; Oral Dose 1.5 mg/kg,58%
same,% Inhibition of TNFa Blood Levels in LPS Treated Mice,[5]; Oral Dose 3 mg/kg,75.6%
same,% Inhibition of TNFa Blood Levels in LPS Treated Mice,[5]; Oral Dose 5 mg/kg,85.5%
same,% Inhibition of TNFa Blood Levels in LPS Treated Mice,[5]; Oral Dose 10 mg/kg,85.6%
same,% Inhibition of TNFa Blood Levels in LPS Treated Mice,[5]; Oral Dose 15 mg/kg,81.3%
same,% Inhibition of TNFa Blood Levels in LPS Treated Mice,[5]; Oral Dose 30 mg/kg,97.3%
same,IC50,"[6]; PBMCs, LPS 1 μg/mL for 24 h, read-out: Proinflammatory TNF-α IC50",0.44 nM
same,"worm activity score / phenotype, Day 3",[7]; trial one,2 to 3
same,"worm activity score / phenotype, Day 3",[7]; trial two,2 to 3
"O=C(C1CCCCC1)N1CC(=O)N2CCc3ccccc3C2C1 (stereo not shown) [PZQ, reference compound]",phenotypes caused by positive control compounds in adult worms,[1],"dose-dependent, rapid and severe phenotypes"
same,phenotypes caused by positive control compounds in schistosomula,[2],"dose-dependent, rapid and severe phenotypes"
"COc1nc(Oc2cc3c(cc2F)B(O)OC3)ccc1C#N [6-(6-Fluoro-1-hydroxy-1,3-dihydrobenzo[c][1,2]oxaborol-5-yloxy)-2-methoxynicotinonitrile]","Adult worm screen phenotype, 7 h",[1]; 5 uM,O++
same,"schistosomula phenotype, 24 h","[2]; First Set, 24 h",O+
"CC(C)OCCOc1nc(Oc2ccc3c(c2)COB3O)ccc1C#N [Compound D140, 6-(1-Hydroxy-1,3-dihydrobenzo[c][1,2]oxaborol-5-yloxy)-2-(2-isopropoxyethoxy)nicotinonitrile]",bioavailability,[3],24%
same,AUC,[3],810 ng·h/mL
same,clearance,[3],56.7 mL/min/kg
same,IC50,[4]; [8],9 nM
same,% Inhibition of TNFa Blood Levels in LPS Treated Mice,[5]; Oral Dose 0.3 mg/kg,26.4%
same,% Inhibition of TNFa Blood Levels in LPS Treated Mice,[5]; Oral Dose 0.5 mg/kg,30%
same,% Inhibition of TNFa Blood Levels in LPS Treated Mice,[5]; Oral Dose 1 mg/kg,50.2%
same,% Inhibition of TNFa Blood Levels in LPS Treated Mice,[5]; Oral Dose 3 mg/kg,59.35%
same,% Inhibition of TNFa Blood Levels in LPS Treated Mice,[5]; Oral Dose 5 mg/kg,72%
same,% Inhibition of TNFa Blood Levels in LPS Treated Mice,[5]; Oral Dose 10 mg/kg,74%
same,% Inhibition of TNFa Blood Levels in LPS Treated Mice,[5]; Oral Dose 30 mg/kg,83.5%
same,IC50,[6]; [9],3.6 nM
same,"Adult worm screen phenotype, 7 h",[1]; 5 uM,O++
"N#Cc1ccc(Oc2ccc3c(c2)COB3O)nc1 [6-(1-hydroxy-1,3-dihydrobenzo[c][1,2]oxaborol-5-yloxy)nicotinonitrile]","Adult worm screen phenotype, 7 h",[1]; 5 uM,O−
same,"Schistosomula (juvenile infective form) worm screen phenotype, 24 h",[2]; 24 h,"R−, O,"
"CC(C)OCCOc1nc(Oc2ccc3c(c2)COB3O)ccc1C#N [6-(1-hydroxy-1,3-dihydrobenzo[c][1,2]oxaborol-5-yloxy)-2-(4-isopropoxy-ethoxy)nicotinonitrile]","worm activity score / phenotype, Day 3",[7]; trial two,4 (highly active (controls))
"N#Cc1ccc(Oc2ccc3c(c2)COB3O)nc1OC1CCCC1 [2-Cyclopentyloxy-6-(1-hydroxy-1,3-dihydro-benzo[c][1,2]oxaborol-5-yloxy)-nicotinonitrile]","Adult worm screen phenotype, 7 h",[1]; 5 uM,O+
same,"Adult worm screen phenotype, 24 h","[1]; 5 uM, 24 h",O−
same,"Schistosomula (juvenile infective form) worm screen phenotype, 24 h",[2]; 24 h,"R, O+"
"O=C(Nc1ccc([N+](=O)[O-])cc1Cl)c1cc(Cl)ccc1O [niclosamide, reference compound]",phenotypes caused by positive control compounds in adult worms,[1],"dose-dependent, rapid and severe phenotypes"
same,phenotypes caused by positive control compounds in schistosomula,[2],"dose-dependent, rapid and severe phenotypes"
